In article PMC7926627, “Fine-Tuning the Biological Profile of Multitarget Mitochondriotropic Antioxidants for Neurodegenerative Diseases” (Antioxidants, 2021):

What was measured:
[1] = Differential pulse voltammetry (DPV); format: physicochemical; conditions: pH 7.4, glassy carbon electrode; for Ep (redox potential): first anodic peak
Method: DPV experiments were performed as described in literature (see supplementary information).
1.4. Electrochemical measurements
Voltammetric studies were carried out using an Autolab PGSTAT 12 potentiostat/galvanostat (Metrohm-Autolab, Netherlands) and one compartment glass electrochemical cell. The voltammetric data were acquired at room temperature using a three-electrode system: a glassy carbon working electrode (GCE) (d = 2 mm), a platinum wire counter electrode and an Ag/AgCl saturated KCl reference electrode (Metrohm, Switzerland). The working electrode was polished manually with an aqueous slurry of alumina powder (BDH Chemicals, VWR, USA) on a microcloth pad and rinsed with water before use. A Crison pH-meter with glass electrode was used for the pH measurements (Crison, Barcelona, Spain).
Differential pulse voltammetry (DPV) experiments were performed as described elsewhere. Test solutions were prepared directly in the electrochemical cell, by diluting ethanolic solutions of the compounds under study (10 mM, 100 μL) in the supporting electrolyte (10 mL) to obtain a final concentration of 100 μM. The scan rate used in differential pulse voltammetry (DPV) was 5 mV.s−1.
All reagents used were of analytical grade or of the highest grade available. Neutral red (NR) solution, resazurin, Dulbecco’s Modified Eagle’s Medium (DMEM) with 4.5 g/L glucose, retinoic acid, 12-O-tetradecanoylphorbol-13-acetate (TPA), 2’,7’-dichorofluorescein diacetate (DCFH-DA), Rhodamine 123 (RHO 123) and zosuquidar (ZOS) were obtained from Sigma Aldrich. Reagents used in cell culture such as heat-inactivated fetal bovine serum (FBS), antibiotic (10,000 U/mL penicillin, 10,000 μg/mL streptomycin), MEM Non-Essential Amino Acids solution (100×) (MEM NEAA), Hanks’ balanced salt solution (HBSS) with or without calcium and magnesium (HBSS(+/+) or HBSS (-/-), respectively) and 0.25% trypsin/1 mM ethylenediamine tetraacetic acid (EDTA) were purchased from Gibco Laboratories (Lenexa, KS, USA). Dimethylsulfoxide (DMSO), absolute ethanol, sodium bicarbonate and acetic acid were obtained from Merck (Darmstadt, Germany). Triton™ X-100 detergent solution was acquired from Thermo Fisher Scientific (Waltham, MA, USA).
Human neuroblastoma SH-SY5Y cells were routinely cultured into […] and maintained in DMEM with 4.5 g/L glucose, supplemented with 10 % heat-inactivated FBS (v/v), 1 % MEM NEAA (v/v) and 1% penicillin/streptomycin (v/v). Cells were maintained at 37 °C in a humidified, 5% CO2−95% air atmosphere, and the cell culture medium was changed every 2-3

[2] = tested on: differentiated SH-SY5Y cells; experiment: Resazurin reduction assay (cytotoxicity); format: cell-based, human; conditions: 24 h
Method: For cytotoxicity studies, differentiated SH-SY5Y cells were incubated with increasing concentrations of the test compounds (0.20–100 µM) for 24 h. Controls were treated with culture media containing 0.1% DMSO. Cell viability was estimated using two different methods: resazurin reduction assay and NR uptake assay. […]
days. The cultures were passaged once a week by trypsinization (0.25 % trypsin/1 mM EDTA).
To avoid phenotypic changes, the cells used for all experiments were taken between 19th and 28th passages. Cells were differentiated as described previously by Fernandes et al.. Briefly, SH-SY5Y cells were seeded onto 96-well plates at a density of 25,000 cells/cm2 in cell culture medium with trans-retinoic acid (RA) (final concentration of 10 µM) and incubated for 3 days at 37 °C in a humidified, 5% CO2−95% air atmosphere. The cell culture medium was then removed and replaced with medium supplemented with 12-O-tetradecanoylphorbol-13-acetate (TPA) (final concentration 80 nM), and cells were incubated for 3 days. Stock solutions of RA (10 mM) and TPA (80 µM) were prepared in DMSO.
1.5.3. Cytotoxicity assays
1.5.3.1. Resazurin reduction assay
Resazurin is a non-fluorescent, non-toxic water-soluble dye able to permeate through cell […]
highly fluorescent resorufin [8, 9]. Since the conversion of resazurin into resorufin occurs mostly in mitochondria, the amount of resorufin produced can be used as indicator of metabolic activity. The quantity of resorufin production is proportional to the number of viable cells in culture and can be quantified fluorometrically or colorimetrically.
Resazurin reduction assay was performed as previously described by Fernandes et al..
Briefly, after the 24 h incubation periods with the test compounds, the cell culture medium was removed and replaced with fresh culture medium with resazurin (10 μg/mL) prepared in cell culture medium. Differentiated SH-SY5Y cells were incubated for 2 h at 37 °C in a humidified 5% CO2−95% air atmosphere. Then, the fluorescence was read in a multiwell microplate reader (PowerWave XS from BioTek Instruments, Vermont, US), using an excitation wavelength of 540 nm and an emission wavelength of 590 nm. The results were expressed as the percentage of resazurin reduction relative to that of the control (non-treated) cells [resazurin reduction (% of […]
1.5.3.2. Neutral red uptake assay
The neutral red (NR) uptake assay is based on the ability of viable cells to incorporate the supravital dye NR and retain it inside the lysosomes. NR uptake assay was performed as previously described by Fernandes et al. Briefly, after the 24 h incubation periods with the test compounds, the cell culture medium was removed and NR solution ([…]) in fresh cell culture medium was added. Differentiated SH-SY5Y cells and Caco-2 cells were incubated for 2 h and 1 h, respectively, at 37 °C in a humidified, 5% CO2−95% air atmosphere. Then, the cell culture medium was removed and replaced by ethanol absolute/distilled water (1:1) with 5 % acetic acid to liberate the dye from the viable cells. The absorbance was measured at 540 nm in a […]

| Compound | Ep (redox potential), second overlapped anodic peak [1] | Ep (redox potential) [1] | concentrations in which the resazurin reduction was significantly decreased [2] | resorufin fluorescence (% of control) ([2]; at concentrations above 25 µM) | resorufin fluorescence (% of control) ([2]; at concentrations above 12.5 µM) | effect on resazurin reduction ([2]; concentrations up to 100 µM) |
| --- | --- | --- | --- | --- | --- | --- |
| O=C(/C=C/C=C/c1ccc2c(c1)OCO2)NCCCC[P+](c1ccccc1)(c1ccccc1)c1ccccc1.[Br-] [Compound 2, (4-((2E,4E)-5-(Benzo[d][1,3]dioxol-5-yl)penta-2,4-dienamido)butyl)triphenylphosphonium bromide] | 1070 mV | 942 mV | ≥ 50 µM | < 85% | – | – |
| O=C(/C=C/C=C/c1ccc2c(c1)OCO2)NCCCCCC[P+](c1ccccc1)(c1ccccc1)c1ccccc1.[Br-] [Compound 3, (6-((2E,4E)-5-(Benzo[d][1,3]dioxol-5-yl)penta-2,4-dienamido)hexyl)triphenylphosphonium bromide] | 1083 mV | 931 mV | – | – | < 85% | – |
| O=C(/C=C/C=C/c1ccc(O)c(O)c1)NCCCC[P+](c1ccccc1)(c1ccccc1)c1ccccc1.[Br-] [Compound 4, (4-((2E,4E)-5-(3,4-Dihydroxyphenyl)penta-2,4-dienamido)butyl)triphenylphosphonium bromide] | – | 125 mV | – | – | – | did not markedly affect |
| O=C(/C=C/C=C/c1ccc(O)c(O)c1)NCCCCCC[P+](c1ccccc1)(c1ccccc1)c1ccccc1.[Br-] [Compound 5, (6-((2E,4E)-5-(3,4-Dihydroxyphenyl)penta-2,4-dienamido)hexyl)triphenylphosphonium bromide] | – | 144 mV | ≥ 50 µM | < 85% | – | – |
